20 compounds from ChEMBL document CHEMBL3301451, “MMV Malaria Box gametocyte functional viability assay screening” can be followed below.

What all share (type): functional
Common to all, as to design: concentration or dose not given beside the values

Experiment [1] has as its system Plasmodium falciparum. The experiment is described as follows: MMV: P. falciparum NF54 functionally mature Stage V gametocytes were incubated for 24 hr in the presence of the test compounds. Gamete formation was then triggered by addition of 2uM xantheurenic acid and temperature decrease to ~20C. Female gamete formation was recorded 24 hr later by automated microscopy detection of surface labelling of female gametes with a Cy3-conjugated antibody reactive to Pfs25. All compounds were tested in 4 independent experiments and data presented here is the mean. To be noted: NF54, 24 h.

Experiment [2] relates to Plasmodium berghei. Put plainly: MMV: P. berghei-infected blood was withdrawn from mice by cardiac pucture before being immediately added to ookinete culture medium containing test compounds. 26 hr later, GFP-positive ookinetes were identified and counted by automated microscopy. All compounds were tested in 4 independent experiments and data presented here is the mean.

Experiment [3] has as its system Plasmodium falciparum. The experiment is described as follows: MMV: P. falciparum NF54 functionally mature Stage V gametocytes were incubated for 24 hr in the presence of the test compounds. Gamete formation was then triggered by addition of 2uM xantheurenic acid and temperature decrease to ~20C. Male gamete exflagellation was recorded and analysed by automated microscopy after 20 min. All compounds were tested in 4 independent experiments and data presented here is the mean.

Consider `CCOc1ccc(CN2CCN(CC(O)COc3ccc(OCC(O)CN4CCN(Cc5ccc(OCC)cc5)CC4)cc3)CC2)cc1` (stereo not given), for which the inhibition is -37.4% in experiment [1], -13.58% in experiment [2] and -9.77% in experiment [3].
Taken in the same sequence, the figures for `Cc1cc(NC(=O)C2c3ccccc3C(=O)N(CC(C)C)C2c2cccs2)no1` (stereo not given) were 40.3%, -16.54% and 52.5%.
Turning to `CC(=O)c1ccc(NC(=O)CSc2nc(-c3ccccc3Cl)ns2)cc1`, the figures for the inhibition in experiment [1], in experiment [2] and in experiment [3] were 2.09%, -19.34% and 33.1%, respectively.
Turning to `CCOc1ccc2c(c1)CN(Cc1ccc(Cl)cc1)CO2`, the inhibition is -18.1% in experiment [1], 5.14% in experiment [2] and 18.9% in experiment [3].
In the case of `CCOc1cc(Cl)c(C(C)NC(=O)c2ccccc2)cc1OCC` (stereo not given), the inhibition in experiment [1] is -37%; in experiment [2], -7.982%; in experiment [3], 32.8%.
Turning to `C=C(C)CCC(C)N1CCC(N2CCC(C(=O)NCCc3ccccc3)CC2)CC1` (stereo not given), the inhibition in experiment [1] was -6.85%; in experiment [2] it was -5.335%; in experiment [3], 9.7%.
Consider `c1ccc2c(NCCc3c[nH]c4ccccc34)c3ccccc3nc2c1`, for which the figures for the inhibition in experiment [1], in experiment [2] and in experiment [3] were 2.57%, -6.399% and 5.59%, respectively.
Take `O=c1cc(NC2CCN(CCCc3ccccc3)CC2)c2cc(Cl)ccc2o1`: the inhibition in experiment [1] is -4.85%; in experiment [2] it was 7.737%; in experiment [3] it was -9.89%.
With `CCCCCCn1c(=N)n(CC(O)COc2cccc(C)c2)c2ccccc21.Cl` (stereo not given), the figures for the inhibition in experiment [1], in experiment [2] and in experiment [3] were -17.6%, 1.158% and -52.7%, respectively.
Taken in the same sequence, the figures for `CC(O)(c1ccc(Cl)cc1)C(CN1CCCCC1)c1ccccc1.Cl` (stereo not given) were -1.41%, -9.711% and -5.37%.
Consider `CCN(Cc1ccccc1)C1CCN(Cc2cc(Br)ccc2O)CC1.O=C(O)C(=O)O`, for which the values for the inhibition in experiment [1], in experiment [2] and in experiment [3] were -4.68%, 11.31% and 7.05%, respectively.
Regarding `O=C(NC1CCN(Cc2ccccc2)CC1)c1cc(C(=O)NC2CCN(Cc3ccccc3)CC2)cc(C(=O)NC2CCN(Cc3ccccc3)CC2)c1`, the inhibition is -6.87% in experiment [1], -11.8% in experiment [2] and 57% in experiment [3].
Turning to `CCOc1ccccc1CN1CCc2nc3cc(C(C)(C)C)nn3c(O)c2C1`, the inhibition in experiment [1] stood at 5.87%; in experiment [2], 19.57%; in experiment [3], 3.23%.
Consider `CCN1CCN(c2c(C(=O)c3ccccc3)cnc3cc(OC)c(OC)cc23)CC1`, for which the inhibition in experiment [1] is -6.16%; in experiment [2] it was -4.456%; in experiment [3], -41.4%.
On to `CC(C)(C)c1ccc(O)c(CNC2CCCCC2)c1`, for which the results for the inhibition in experiment [1], in experiment [2] and in experiment [3] were 3.67%, -33.89% and -29.4%, respectively.
On to `COc1cc(SC)ccc1C(=O)N1CCCC(C)C1` (stereo not given), for which the inhibition is 6.66% in experiment [1], -13.09% in experiment [2] and 23.2% in experiment [3].
Taken in the same sequence, the figures for `COc1ccc(C(O)(CCC(C)C)C(CN2CCOCC2)c2ccc(Cl)cc2)cc1.Cl` (stereo not given) were 6.32%, 5.473% and -0.282%.
With `CCOC(=O)c1cnc2ccc(OC)cc2c1NCc1ccccc1`, the inhibition is -40.9% in experiment [1], -6.823% in experiment [2] and -12.8% in experiment [3].
As to `CC(C)c1ccc(CNCC(O)c2ccccc2)cc1.Cl` (stereo not given), the inhibition in experiment [1] is -2.85%; in experiment [2] it was -4.617%; in experiment [3], 4.92%.
With `COc1ccc(C(C)=O)cc1N1C(=O)C2C(C1=O)C1(c3ccccc3)C(=O)C2(c2ccccc2)C(c2ccc(C)cc2)=C1c1ccc(C)cc1` (stereo not given), the inhibition is -9.11% in experiment [1], -19.71% in experiment [2] and 21.8% in experiment [3].
